1 molecule from patent publication US11524003B2, “Alpha-amino esters of hydroxypropylthiazolidine carboxamide derivative and salt form, crystal polymorph thereof” (ObsEva S.A., priority 2016, dated 2022) can be followed below.

The subject of test [1] is panel of 50 receptors, channels and enzymes binding sites. The following applies: 1 μM.
For test [2], the system named is other prostaglandin receptor subtypes. The note with it: FP over other subtypes. As for the experimental part: (§1) Selectivity of compound II was tested against all eight prostaglandin receptor subtypes.
For test [3], the target named is prostaglandin E receptor 2 (EP2) (Homo sapiens, UniProt P43116). The note with it: FP over EP2. As for the experimental part:
as §1

The subject of test [4] is PGF2α-induced myometrial contractility. The test is described as follows: PGF2α-induced contractions of human myometrial biopsies (myograph). The note with it: 6, 60, 600, 6000 nM. As for the experimental part:
Experiments were performed using a DMT Myograph 800 MS (ADINSTRUMENTS™) in oxygenated Kreb's solution with ADI Powerlab software. Once regular contractions had been established for at least 20 minutes, baseline measurements of spontaneous contraction frequency were recorded. The measurement of spontaneous contraction frequency is represented on the x-axis as “Spon.” A DMSO control or compound II was then added to each myometrial sample at the indicated concentrations and the effects of control or compound II on contractile frequency were measured over the ensuing 10-minute period. This time point is represented on the x-axis as “Compound II.” The effects of compound II on contractile frequency in the presence of PGF2α were subsequently measured by challenging the myometrial tissue samples with increasing concentrations of PGF2α (1 nM, 10 nM, and 100 nM) at sequential 10-minute intervals. […] Once regular contractions had been established for at least 20 minutes, baseline measurements of spontaneous work done per contraction were recorded. The measurement of spontaneous work done per contraction is represented on the x-axis as “Spon.” A DMSO control or compound II was then added to each myometrial sample at the indicated concentrations and the effects of control or compound II on work done per contraction were measured over the ensuing 10-minute period. […]

Sequence of prostaglandin E receptor 2 (EP2) (P43116 whole entry): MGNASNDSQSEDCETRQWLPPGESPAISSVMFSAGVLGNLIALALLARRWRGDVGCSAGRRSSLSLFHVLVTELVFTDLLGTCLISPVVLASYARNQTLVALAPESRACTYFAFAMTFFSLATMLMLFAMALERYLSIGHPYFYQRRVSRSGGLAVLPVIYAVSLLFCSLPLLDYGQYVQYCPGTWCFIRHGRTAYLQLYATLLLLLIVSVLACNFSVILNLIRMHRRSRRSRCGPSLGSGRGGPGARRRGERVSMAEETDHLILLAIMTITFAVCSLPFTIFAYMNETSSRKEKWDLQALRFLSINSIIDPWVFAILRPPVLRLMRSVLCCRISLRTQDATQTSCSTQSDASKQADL

Regarding `O=C(N[C@@H](CCO)c1ccc(F)cc1)[C@@H]1SCCN1S(=O)(=O)c1ccc(-c2ccccc2)cc1` [Compound II, 3-([1,1′-biphenyl]-4-ylsulfonyl)-N-[1-(4-fluorophenyl)-3-hydroxypropyl]-1,3-thiazolidine-2-carboxamide], the “Selectivity in panel of 50 receptors, channels and enzymes” value in test [1] is on record as “high selectivity for FP”. The “Selectivity against other prostaglandin receptors” value in test [2] was “higher than 100 fold”. In addition, the “Selectivity versus prostaglandin E receptor 2 (EP2)” value in test [3] was “approximately 10 fold”. Besides, in test [4], the “Effect on PGF2α-induced myometrial contractility” value is “suppressing both PGF2α-induced and OT-induced myometrial contractility in a dose-dependent fashion”.
